In patent US20200338094A1, “Use of a Heterocyclic Bcl-xL Inhibitor and Related Analogs for Removing Senescent Cells in the Treatment of Eye Diseases and Other Age-Related Conditions” (Unity Biotechnology, Inc., priority 2015, published 2020):
pEC50, pKi: −log10 of the molar value.

Tests used:
Bcl-2 = target: T1, Bcl-2 (Homo sapiens, UniProt P10415); assay: Bcl inhibition homogeneous (AlphaScreen) binding assay, Bcl-2; conditions: read-out: Binding Affinities (Ki ± SD) Bcl-2
T1 construct: purchased Sigma-Aldrich Co., St. Louis, Mo
Source text: (§1) This assay uses a homogenous assay technology based on oxygen channeling that is marketed by PerkinElmer Inc., Waltham, Mass.: see Eglen et al., Current Chemical Genomics, 2008, 1, 2-10. The test compound is combined with the target Bcl protein and a peptide representing the corresponding cognate ligand, labeled with biotin. The mixture is then combined with streptavidin bearing luminescent donor beads and luminescent acceptor beads, which proportionally reduces luminescence if the compound has inhibited the peptide from binding to the Bcl protein.
(§2) Bcl-2, Bcl-xL and Bcl-W are available from Sigma-Aldrich Co., St. Louis, Mo. Biotinylated BIM peptide (ligand for Bcl-2) and BAD peptide (ligand for Bcl-xL) are described in pre-grant publication US 2016/0038503 A1. AlphaScreen® Streptavidin donor beads and Anti-6×His AlphaLISA® acceptor beads are available from PerkinElmer.
(§3) To conduct the assay, a 1:4 dilution series of the compound is prepared in DMSO, and then diluted in assay buffer. In a 96-well PCR plate, the following are combined: 10 μL peptide, 10 μL test compound, and 10 μL BCL protein. The assay plate is incubated in the dark at room temperature for 24 h. The next day, donor beads and acceptor beads are combined, and […] is added to each well. After incubating in the dark for 30 minute, luminescence is measured using a plate reader, and the affinity or degree of inhibition by each test compound is determined.
(§4) The chosen compounds were further assayed to quantitatively determine the actual affinity for Bcl-xL, Bcl-2, and Bcl-w with a view to identifying candidate senolytic agents for use in treating age related conditions. FIGS. 2A, 2B, and 2C show the results of the binding assay, with those compounds towards the left of each graph having the highest affinity.

Bcl-w = target: T2, Bcl-w (Homo sapiens, UniProt Q92843); assay: Bcl inhibition homogeneous (AlphaScreen) binding assay, Bcl-w; conditions: read-out: Binding Affinities (Ki ± SD) Bcl-w
T2 construct: purchased Sigma-Aldrich Co., St. Louis, Mo
T2 sequence (Q92843 1-193): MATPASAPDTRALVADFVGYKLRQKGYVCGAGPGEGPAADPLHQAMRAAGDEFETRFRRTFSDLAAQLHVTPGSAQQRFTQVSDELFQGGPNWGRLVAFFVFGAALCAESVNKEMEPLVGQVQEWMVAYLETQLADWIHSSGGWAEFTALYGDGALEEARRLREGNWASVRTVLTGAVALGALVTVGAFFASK
Source text: as §1, §2, §3, §4

[1] = tested on: senescent fibroblasts (SnCs), IMR90 cells; assay: Senolytic activity: killing senescent (irradiated) IMR90 fibroblasts, CellTiter-Glo; assay type: cell-based, human; conditions: for pEC50: killing senescent (irradiated) fibroblasts in culture, read-out: Best SnCs EC50; for SI (specificity for senescent cells): senescent vs non-senescent cells of the same tissue type; for senolytic potency (EC50), in words: killing senescent cells
Source text: Human fibroblast IMR90 cells can be obtained from the American Type Culture Collection (ATCC®) with the designation CCL-186. The cells are maintained at <75% confluency in DMEM containing FBS and Pen/Strep in an atmosphere of 3% O2, 10% CO2, and 95% humidity. The cells are divided into three groups: irradiated cells (cultured for 14 days after irradiation prior to use), proliferating normal cells (cultured at low density for one day prior to use), and quiescent cells (cultured at high density for four day prior to use).
On day 0, the irradiated cells are prepared as follows. IMR90 cells are washed, placed in T175 flasks at a density of 50,000 cells per mL, and irradiated at 10-15 Gy. Following irradiation, the cells are plated at […] in 96-well plates. On days 1, 3, 6, 10, and 13, the medium in each well is aspirated and replaced with fresh medium.
On day 10, the quiescent healthy cells are prepared as follows. IMR90 cells are washed, covered with 3 mL of TrypLE trypsin-containing reagent (Thermofisher Scientific, Waltham, Mass.) and cultured for 5 min until the cells have rounded up and begin to detach from the plate. Cells are dispersed, counted, and prepared in medium at a concentration of 50,000 cells per mL. 100 µL of the cells is plated in each well of a 96-well plate. Medium is changed on day 13.
On day 13, the proliferating healthy cell population is prepared as follows. Healthy IMR90 cells are washed, covered with 3 mL of TrypLE and cultured for 5 minutes until the cells have rounded up and begin to detach from the plate. Cells are dispersed, counted, and prepared in medium at a concentration of 25,000 cells per mL. 100 µL of the cells is plated in each well of a 96-well plate.
On day 14, test senolytic agents are combined with the cells as follows. A DMSO dilution series of each test compound is prepared at 200 times the final desired concentration in a 96-well PCR plate. Immediately before use, the DMSO stocks are diluted 1:200 into prewarmed complete medium. Medium is aspirated from the cells in each well, and 100 µL/well of the compound containing medium is added.
The test senolytic agents are cultured with the cells for 6 days, replacing the culture medium with fresh medium and the same compound concentration on day 17. Bcl-2 inhibitors such as those tested in the examples that follow are cultured with the cells for 3 days. The assay system uses the properties of a thermostable luciferase to enable reaction conditions that generate a stable luminescent signal while simultaneously inhibiting endogenous ATPase released during cell lysis. At the end of the culture period, 100 µL of CellTiter-Glo@ reagent (Promega Corp., Madison, Wis.) is added to each of the wells. The cell plates are placed for 30 seconds on an orbital shaker, and luminescence is measured.
Furthermore, even if the compound is potent, it would not be suitable for use as a therapeutic unless it preferentially kills senescent cells with a high degree of selectivity. Accordingly, compounds in the library showing high Bcl binding affinity were further screened for their ability to kill irradiated fibroblasts, in comparison with replicating fibroblasts or fibroblasts that were quiescent (due to confluence) but not senescent.

Bcl-xL = target: T3, Bcl-xL (Homo sapiens, UniProt Q07817); assay: Bcl inhibition homogeneous (AlphaScreen) binding assay, Bcl-xL; conditions: read-out: Binding Affinities (Ki ± SD) Bcl-xL
T3 construct: purchased Sigma-Aldrich Co., St. Louis, Mo
Source text: as §1, §2, §3, §4

Bcl isoforms = assay: Binding affinity for the Bcl isoforms; conditions: Bcl-xL, Bcl-2, Bcl-w
Source text: as §1, §2, §3, §4

T1 sequence (P10415 whole entry, species assumed): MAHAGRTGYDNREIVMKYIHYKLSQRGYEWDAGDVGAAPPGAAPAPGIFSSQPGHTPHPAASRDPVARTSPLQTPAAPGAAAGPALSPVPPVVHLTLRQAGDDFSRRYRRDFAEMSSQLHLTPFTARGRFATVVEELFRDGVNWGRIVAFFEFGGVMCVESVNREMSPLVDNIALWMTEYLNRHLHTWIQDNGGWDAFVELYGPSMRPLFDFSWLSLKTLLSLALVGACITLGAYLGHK
T3 sequence (Q07817 whole entry, species assumed): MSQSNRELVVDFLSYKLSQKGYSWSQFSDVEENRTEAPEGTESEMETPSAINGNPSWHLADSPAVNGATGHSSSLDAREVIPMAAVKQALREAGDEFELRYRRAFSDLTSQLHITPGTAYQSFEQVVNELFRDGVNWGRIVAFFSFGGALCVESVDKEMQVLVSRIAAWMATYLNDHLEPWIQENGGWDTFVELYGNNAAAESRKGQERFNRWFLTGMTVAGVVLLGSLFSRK

Row | SMILES | pKi (Bcl-2) | pKi (Bcl-w) | pEC50 [1] | SI (specificity for senescent cells) [1] | pKi (Bcl-xL) | binding affinities (Ki) for the Bcl isoforms, in words (Bcl isoforms) | senolytic potency (EC50), in words [1]
1 | CCn1c(C)c(C(=O)O)c(-c2cccc(N3CCN(c4ccc(NS(=O)(=O)c5ccc(N[C@H](CCN6CCC(O)CC6)CSc6ccccc6)c(S(=O)(=O)C(F)(F)F)c5)cc4)CC3)c2)c1-c1ccc(Cl)cc1 [BM-957] | 8.48 | 9.18 | 6.52 | 11.7 | 10.34 |  | 
2 | Cc1c(C(=O)O)c(-c2cccc(N3CCN(c4ccc(NS(=O)(=O)c5ccc(N[C@H](CCN6CCC(O)CC6)CSc6ccccc6)c(S(=O)(=O)C(F)(F)F)c5)cc4)CC3)c2)c(-c2ccc(Cl)cc2)n1C(C)C [BM-962] | 8.47 | 9.27 | 6.70 | 18.5 | 10.24 |  | 
3 | CCn1c(C)c(C(=O)NS(C)(=O)=O)c(-c2cccc(N3CCN(c4ccc(NS(=O)(=O)c5ccc(N[C@H](CCN(C)C)CSc6ccccc6)c([N+](=O)[O-])c5)cc4)CC3)c2)c1-c1ccc(Cl)cc1 [BM-1075] | 9.75 | 9.79 | 6.52 | 15.3 | 11.24 | nanomole to picomole range | 
4 | CCn1c(C)c(S(C)(=O)=O)c(-c2cc(F)cc(N3CCN(c4ccc(NS(=O)(=O)c5ccc(N[C@H](CCN6CCC(O)CC6)CSc6ccccc6)c(S(=O)(=O)C(F)(F)F)c5)cc4)CC3)c2)c1-c1ccc(F)cc1 [BM-1192] |  |  | 7.30 | 60.0 |  |  | 
5 | Cc1c(S(C)(=O)=O)c(-c2cc(F)cc(N3CCN(c4ccc(NS(=O)(=O)c5ccc(N[C@H](CCN6CCC(O)CC6)CSc6ccccc6)c(S(=O)(=O)C(F)(F)F)c5)cc4)CC3)c2)c(-c2ccc(F)cc2)n1C(C)C [BM-1195] | 9.18 | 9.76 | 8.22 | 128.7 | 9.83 | nanomole to picomole range | potent in the nanomole range
6 | Cc1c(S(C)(=O)=O)c(-c2cc(F)cc(N3CCN(c4ccc(NS(=O)(=O)c5ccc(N[C@H](CCN6CCC(O)CC6)CSc6ccccc6)c(S(=O)(=O)C(F)(F)F)c5)cc4)CC3)c2)c(-c2ccc(Cl)cc2)n1C(C)C [BM-1197] | 9.35 | 9.54 | 8.30 | 366.7 | 9.53 | nanomole to picomole range | potent in the nanomole range
7 | Cc1c(S(C)(=O)=O)c(-c2cc(F)cc(N3CCN(c4ccc(NS(=O)(=O)c5ccc(N[C@H](CCN6CCC(C(=O)O)CC6)CSc6ccccc6)c(S(=O)(=O)C(F)(F)F)c5)cc4)CC3)c2)c(-c2ccc(Cl)cc2)n1C(C)C [BM-1244] | 9.35 | 9.45 | 6.52 | 66.7 | 9.87 | nanomole to picomole range | 
